Results published in patent US11759439B2, “Bromhexine for the treatment of pain” (priority 2017, dated 2023).
Entries after “also recorded” stand apart in the source; their conditions may differ.

Key:
rodents = conditions: cited from earlier work
humans = conditions: cited from earlier work
[1] = target: T1, tetrodotoxin-resistant (TTXr) Na+ currents encoded by Nav1.8 (Homo sapiens, UniProt Q9Y5Y9); conditions: preference for TTXr Na+ currents encoded by Nav1.8; cited from earlier work
T1 construct: host or cells: sensory neurons

[2] = tested on: patient with osteoarthritis in both knees and chronic postsurgical pain (CPSP) after knee replacement; assay: Case report 1: topical bromhexine cream, NRS pain score, knees; assay type: in vivo, human
Description: (§1) In the following Examples a dermal topical cream was used comprising 20% (w/w) bromhexine HCl (10 g), medium-chain triglycerides (MCTs; Triglycerida Saturata Medium Migloyol® 812N, FAGRON GmbH & Co. KG, Cas No. 73398-61-5) (5 g), Linola Creme ad 50 g (Dr. August Wolff GmbH & Co. KG Arzneimittel, PZN 02489672; emulsion O/W containing unsaturated fatty acids (C182), carbomer 980, decyloleat, glycerol monosterate, ceteareth-3, phenoxyethanol, stearic acid, trometamol, wax bleached and purified water), unless stated otherwise. The dermal topical cream was prepared by mixing bromhexine with the MCTs and adding the Linola Creme to obtain a homogenous cream. We chose a dermal topical cream rather than a gel, because a cream is better absorbed by the skin. Bromhexine was fast and easy to formulate into a topical pharmaceutical composition, particularly into a homogenous cream.
(§2) The dermal topical cream was administered (thinly) to the skin in the affected area and a beneficial effect was typically noticed within 30 min. The effect lasted for about 4 to 12 hours, typically 6 hours. For long term treatment the cream was administered 2 to 3 times per day. In some cases a once daily administration was sufficient.
(§3) In all case reports shown below, the intensity of pain is reported with the NRS-Score (NRS=numeric rating scale) on which the patient rates their pain between ‘0=no pain’ and ‘10=unbearable pain’. The NRS-Score is the standard of pain evaluation in international publications and according to the literature an intensity of NRS 3 or lower usually is felt as ‘tolerable’ by patients with chronic pain.
A patient suffered from osteoarthritis in both knees and had received knee replacement followed by chronic postsurgical pain (CPSP) in one of it. […] Starting on a pain level of NRS 7, 30 min after topical bromhexine the pain decreased to NRS 6 and to NRS 4 within 2 hours. […] On another occasion the pain was reduced in both knees from NRS 6 before bromhexine treatment to NRS 3 after 2 hours.

[3] = tested on: patient with neuropathic pain in both feet; assay: Case report 2: topical bromhexine cream, NRS pain score, neuropathic forefoot pain; assay type: in vivo, human; conditions: for effect of earlier treatment (patient history): before bromhexine
Description: as §1, §2, §3
The […] presented neuropathic pain in both feet and felt “running on coals” and as “gripped in a vice”, walking or gardening were almost impossible. It could not be explained in orthopaedic terms and no polyneuropathy was detected on neurographic investigation. […] Gabapentin, opiates and topical lidocaine were not helpful. After topical bromhexine the pain of NRS 5 during the heel-to-toe roll and the forefoot touch sensitivity decreased to NRS 1 within 15 min and disappeared after 30 min for hours (FIG. 6, last columns, “neuropathic forefoot pain”).

[4] = tested on: patient with pain in right hand and wrist due to osteoarthritis; assay: Case report 3: topical bromhexine cream, NRS pain score, osteoarthritis of hand and wrist; assay type: in vivo, human; conditions: within 2 hours after topical bromhexine cream; NRS 6 before treatment
Description: as §1
as §2, with “sufficient. […]” for “sufficient.”

[5] = tested on: patient with painful left knee after meniscus surgery; assay: Case report 3: topical bromhexine, NRS pain score, knee pain after meniscus surgery; assay type: in vivo, human; conditions: after bromhexine treatment; NRS 8 before; time not stated
Description: as §1
as §2, with “sufficient. […]” for “sufficient.”

[6] = tested on: patient with postherpetic neuralgia; assay: Case report 4: topical bromhexine, postherpetic neuralgia; assay type: in vivo, human; conditions: for pain in the treated area (NRS): untreated abdominal area unchanged
Description: as §1, §2, §3
A patient contracted an infection with the herpes zoster virus followed by skin eruptions 3 years ago. In the affected area of the right thorax they developed a dynamic allodynia and pinprick hyperalgesia and hypersensitivity to cold and airbrush which spread out circular to the abdominal region. Only the dorsal part of the area was treated with bromhexine. […]

[7] = tested on: patient with severe chronic low back pain and S1 radiculopathy; assay: Case report 5: topical bromhexine, low back pain (S1-radiculopathy); assay type: in vivo, human
Description: as §1
as §2, with “sufficient. […]” for “sufficient.”

[8] = tested on: patient with rheumatoid arthritis and fibromyalgia; assay: Case report 6: topical bromhexine cream, rheumatoid arthritis and fibromyalgia, hands; assay type: in vivo, human
Description: as §1, §2
A rheumatoid arthritis and fibromyalgia for many years developed a chronic pain disease in a person. Hands were distorted painfully and movements like the closure of fist were only possible very slowly and the movement was painful and incomplete. Self-supply was threatened. The medical options for pain therapy were limited due to long-term side effects on stomach, kidney, cardiovascular system and liver by nonsteroidal anti-rheumatic drugs (NSAIDS) or coxibes as well as the risk of tumbling caused by central nervous effects as sedation and dizziness. Bromhexine cream was applied at both hands. Already 2 min later the patients started to move both hands and ‘searched their pain’ because it was improved and movements could be performed more easily, quickly and complete. […]

[9] = tested on: patient with complex regional pain syndrome (CRPS); assay: Case report 7: topical bromhexine, complex regional pain syndrome (CRPS); assay type: in vivo, human; conditions: 30-45 min following the treatment
Description: as §1
as §2, with “sufficient. […]” for “sufficient.”

[10] = tested on: patient with chronic severe pain syndrome of both hands and arms from unclear origin; assay: Case report 8: topical bromhexine, chronic unclear severe pain syndrome of hands and arms; assay type: in vivo, human
Description: as §1, §2
Further the extent of possible finger spreading was much better in their left hand, which was treated with the bromhexine compared to their untreated right hand (FIG. 1 C). Particularly the extent of the “pain limited” finger spreading of their bromhexine treated left hand hand compared to their untreated right hand increased. In their untreated right hand pain started immediately with the first movement. Further, the extent of possible free of pain elbow rotation 20 min after bromhexine in their left treated elbow increased (FIG. 1D, bottom panel). No movement free of pain was possible in their right elbow (FIG. 1D, top panel).

[11] = tested on: patient with chronic pain caused by osteoarthritis of the fingers; assay: Case report 9: topical bromhexine, osteoarthritis of the fingers; assay type: in vivo, human; conditions: 15 min after topical bromhexine; before: incomplete and very painful
Description: as §1, §2
A patient with chronic pain caused by osteoarthritis of the fingers for many years. Forming a fist was incomplete and very painful. […]

[12] = tested on: patient with severe fibromyalgia pain; assay: Case report 10: topical bromhexine, severe fibromyalgia; assay type: in vivo, human; conditions: 25 min after topical bromhexine
Description: as §1, §2
A patient with severe fibromyalgia pain presented an exacerbation with painful hand/finger movements and swelling. […] The patient was surprised about the reduced swelling, the possibility of the closure of fist and a reduction of the functional impairment during movement. Closure of the fist was only possible to a half-closed position without (or almost no) pain before treatment (FIG. 4C, top panel).

[13] = tested on: patient with fibromyalgia pain; assay: Case report 11: topical bromhexine, fibromyalgia pain of the hands; assay type: in vivo, human
Description: as §1
as §2, with “sufficient. […]” for “sufficient.”

treated patients = assay: Topical bromhexine cream in pain patients: onset, duration, side effects (all cases); assay type: in vivo, human
Description: as §1
as §2, with “sufficient. […]” for “sufficient.”

[14] = in vivo; cited from earlier work
mucus = conditions: cited from earlier work

Nc1c(Br)cc(Br)cc1CN[C@H]1CC[C@H](O)CC1 [Ambroxol]
pain-related behavior (rodents): reduce pain-related behavior | pain (humans): alleviate pain | Na+ currents in sensory neurons [1]: block Na+ currents

CCN(CC)CC(=O)Nc1c(C)cccc1C [lidocaine]
effect of earlier treatment (patient history) ([2]; topical plasters, before bromhexine): not been helpful | effect of earlier treatment (patient history) [3]: not helpful

NCC1(CC(=O)O)CCCCC1 [Gabapentin]
effect of earlier treatment (patient history) [3]: not helpful

CN(Cc1cc(Br)cc(Br)c1N)C1CCCCC1 [bromhexine, 2,4-dibromo-6-[[cyclohexyl(methyl)amino]methyl]aniline]
pain level (NRS) ([2]; 30 min after topical bromhexine, starting pain level NRS 7, knee with CPSP): 6 NRS | pain level (NRS) ([2]; another occasion, both knees, NRS 6 before bromhexine, after 2 hours): 3 NRS | pain level (NRS) ([2]; within 2 hours after topical bromhexine, starting pain level NRS 7, knee with CPSP): 4 NRS | functional impairment of walking ([3]; 8 hours later): without recurrence | pain level (NRS) ([3]; 8 hours later, NRS 5 before): 2 NRS | pain during heel-to-toe roll and forefoot touch sensitivity ([3]; after 30 min, for hours, NRS 5 before): disappeared | pain level (NRS) during heel-to-toe roll and forefoot touch sensitivity ([3]; within 15 min after topical bromhexine, NRS 5 before): 1 NRS | pain (NRS) [4]: 0.5 NRS | pain intensity (NRS) [5]: 4.5 NRS | pain in the treated area (NRS) ([6]; after 15 min): 4 NRS | pain in the treated area (NRS) ([6]; after 30 min): 1 NRS | tingling sensation and subjective hypersensitivity ([6]; after the first few minutes, treated dorsal area): disappeared completely | stabbing sensations ([7]; after bromhexine): reduced | pain level (NRS) ([7]; within 30 minutes, NRS 6 before bromhexine): about 4 | closure of fist ([8]; 5 min after topical bromhexine, both hands): improved notable in motion sequence; also recorded: improved notably in motion sequence | time to first improvement of pain and movements ([8]; after application of bromhexine cream at both hands): 2 min | duration of the improvement ([8]; in vivo): several hours | motions of the hand [9]: without stabbing sensations | burning pain (NRS) ([9]; 8 NRS before): 3 NRS | swelling in the treated area ([10]; 20 min after bromhexine): reduction of swelling | extent of possible free of pain elbow rotation ([10]; 20 min after bromhexine, left treated elbow): increased | reddening of the treated left hand ([10]; 20 min following topical bromhexine, right hand untreated): reduction of reddening | pain and feeling of swelling and tension ([10]; 20 min following topical bromhexine, treated left hand): impressive reduction | movements of the left hand and arm ([10]; about 30 min after bromhexine, none free of pain in untreated right arm): able to perform movements free of pain; also recorded: diverse possible movements free of pain | extent of possible finger spreading ([10]; treated left hand compared to untreated right hand, 20 min): much better | closure of the fist [11]: closed completely and with reduced pain; also recorded: performed completely and with reduced pain | swelling of the treated right hand [12]: strongly reduced | closure of the fist ([12]; before: only half-closed without pain): completely possible without pain; also recorded: closed completely and without pain | movement of the thumb to the palm ([12]; impossible before): free of pain; also recorded: not any longer limited by pain | stabbing ([13]; 30 min following topical bromhexine): disappeared | pain in both hands with tension, stiffness, swelling and stabbing ([13]; 30 min following topical bromhexine to the hands, NRS 5 before): disappeared broadly | side effects (treated patients): None of the treated patients reported side effects | bioavailability [14]: relatively low | hepatic first-pass effect [14]: up to 80% | passage of the blood-brain barrier [14]: pass the blood-brain barrier | secretion volume (mucus; in vivo): increases | viscosity of the sputum (mucus; in vivo): decreases | side-effects (mucus; known oral use): very few side-effects
